How the values were obtained:
[1] = tested on: primary peritoneal macrophages of C57BL/6J mice; experiment: Nitric oxide synthesis (nitrite, Griess reagent) in LPS-stimulated peritoneal macrophages; type: cell-based; settings: 100 μM
Description: Peritoneal macrophages (PM) were isolated from the peritoneal exudate of 30 male C57bl/6j mice. To accumulate PM, 1 ml of 3% peptone solution was injected intraperitoneally. After 3 days the mice were euthanized by cervical dislocation. Cells of peritoneal exudate were obtained by aseptically washing the abdominal cavity with 5 ml of sterile Hanks’s solution (+ 4-6 °C) without calcium and magnesium ions. The total number and viability of cells were assessed in a Goryaev counting chamber (Russia) with a 0.4% trypan blue staining (Sigma-Aldrich, USA). The cell concentration was adjusted to 1.0×10^6 cells/ml in DMEM (Gibco) supplemented with 2 mM L-glutamine (Gibco), 10% heat-inactivated fetal bovine serum (BioClot, Germany), 100 U/ml penicillin and […] streptomycin (Gibco) and plated 200 μl/well in 96-well transparent plates (SPL Life Sciences Co., Ltd., Korea). It was left for 2 h at 37°C in a humidified atmosphere with 5% CO2, after which the wells were washed to remove non-adherent cells. After 24 hours of incubation, 20 μl of the supernatant was removed and 20 μl of solutions of test compounds were added 30 min before E. coli O127:B8 LPS (100 ng/ml final concentration). Experiments were run in 3 independent replicates.
The accumulation of nitrite anion (a stable end product of NO decomposition produced by iNOS) in supernatants was determined using a standard Griess reagent. Briefly, 50 μl of supernatants collected 22 hours after incubation of PM with test and control compounds were mixed with 50 μl of 1% sulfonamide in 2.5% H3PO4 and 50 μl of 0.1% N-(1-naphthyl) ethylenediamine in 2,5% H3PO4. After incubation at 23 °C for 10 min in an orbital shaker, the optical density was determined at a wavelength of 550 nm with a microplate reader Infinite M200 PRO (Tecan, Austria).

[2] = Solubility under the conditions of the platelet aggregation assay; type: physicochemical; settings: antiplatelet assay
Description: Test compounds were dissolved in 99% DMSO (stock concentration 40 mM) and stored at –25 °C. If sediment or opalescence was detected, 5% Tween 20 (Merck) was added. Serial dilutions were prepared ex tempore in a media suitable for the particular study. Final concentration in samples: DMSO <0.25%, Tween 20 <0.025% (were added to control samples in equal concentrations).
Functional activity of platelets was determined on a two-channel laser analyzer of platelet aggregation "BIOLA-220 LA" (Russia) as described previously. The experiments were carried out on 6 male rabbits weighing 3.5–4 kg. To prepare platelet-rich plasma (PRP) venous blood was taken from the ear marginal vein of a rabbit, stabilized with a 3.8% sodium citrate solution in a ratio of 9:1 and centrifuged for 10 min at 1500 rpm. PRP (300 μL) and a solution of the test compound at a concentration of 100 μM were sequentially introduced into the cell of the aggregometer. The samples were incubated in thermostated cells of the aggregometer at 37 °C for 5 min. To induce aggregation adenosine-5-diphosphoric acid (ADP, Sigma, USA) at a final concentration of 5 μM, was added to the cuvette. Acetylsalicylic acid (Shandong Xinhua Pharmaceutical Co., Ltd., China) was used as a reference drug. Experiments were run in 5 independent replicates.

Cn1c(=O)n(Cc2nnc(N)[nH]2)c(=O)c2ccccc21 [Compound 3e, 3-[(5-Amino-4H-1,2,4-triazol-3-yl)methyl]-1-methylquinazoline-2,4(1H,3H)-dione]
inhibition of the synthesis of nitric oxide [1]: statistically significantly inhibit | solubility under assay conditions [2]: insoluble under assay conditions
